Source: ChEMBL document CHEMBL1201862, “PubChem BioAssay data set” (2004)
Active and inactive are the calls of the source.

Tests used:
A549 = assay: A549 cell toxicity, dose response, cytotoxicity control, plate reader, cherry-pick samples (AID 687028); assay type: functional, cell-based; conditions: Homo sapiens
[1] = HEp-2 cell cytotoxicity, dose response, cytotoxicity control for RSV inhibitor project, HTS (AID 2410); assay type: functional; conditions: human respiratory syncytial virus
Vero = assay: host cell cytotoxicity of antiviral hits, dose response, cytotoxicity control for West Nile virus antiviral project, secondary assay (AID 1650); assay type: functional; conditions: Chlorocebus sabaeus
[2] = molecular target: T1, DNA repair and recombination protein RAD54-like (Homo sapiens, UniProt Q92698); assay: inhibitors of human RAD54 branch migration, confirmation, biochemical, fluorescence, cherry-picked samples, dose series (AID 651657); assay type: functional
T1 sequence (Q92698 whole entry): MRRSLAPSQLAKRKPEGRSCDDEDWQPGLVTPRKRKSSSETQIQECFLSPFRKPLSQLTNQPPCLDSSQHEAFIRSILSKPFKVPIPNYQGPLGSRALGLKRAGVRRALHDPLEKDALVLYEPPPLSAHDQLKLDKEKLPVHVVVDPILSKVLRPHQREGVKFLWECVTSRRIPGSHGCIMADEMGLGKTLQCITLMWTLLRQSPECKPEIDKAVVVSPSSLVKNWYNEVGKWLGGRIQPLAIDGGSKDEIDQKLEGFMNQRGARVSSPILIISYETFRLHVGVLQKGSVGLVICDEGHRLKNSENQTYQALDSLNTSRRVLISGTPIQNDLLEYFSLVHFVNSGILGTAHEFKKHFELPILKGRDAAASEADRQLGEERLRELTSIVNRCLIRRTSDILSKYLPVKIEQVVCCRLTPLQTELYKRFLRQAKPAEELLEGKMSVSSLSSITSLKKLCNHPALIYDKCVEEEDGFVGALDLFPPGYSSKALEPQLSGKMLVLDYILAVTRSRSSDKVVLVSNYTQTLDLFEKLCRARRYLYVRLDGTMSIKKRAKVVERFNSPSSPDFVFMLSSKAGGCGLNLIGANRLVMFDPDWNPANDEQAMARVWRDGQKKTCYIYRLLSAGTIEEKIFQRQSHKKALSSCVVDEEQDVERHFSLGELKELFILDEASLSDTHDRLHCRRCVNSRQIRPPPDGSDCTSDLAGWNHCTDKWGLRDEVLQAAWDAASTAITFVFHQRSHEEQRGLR

[3] = MDA-MB-231 cell growth inhibition, dose response, cytotoxicity control for RAD54 inhibitor project, CellTiter-Glo luminescence, cherry-pick (AID 651692); assay type: functional, cell-based
[4] = molecular target: T2, Methionyl-tRNA synthetase, putative (Trypanosoma brucei brucei, UniProt Q38C91); assay type: functional, Trypanosoma brucei brucei strain 927/4 GUTat10.1
[5] = molecular target: T2, Methionyl-tRNA synthetase, putative; assay type: functional, Trypanosoma brucei brucei strain 927/4 GUTat10.1; remark: listed apart in the source
[6] = Counterscreen for inhibitors of Trypanosoma brucei methionyl tRNA synthetase (MetRS): Luminescence-based cell-based high throughput dose response assay to identify compounds that are cytotoxic to Jurkat human T lymphocyte cells.; assay type: functional
[7] = LGR2 antagonists, dose response, cell-based, HEK293, CRE-luciferase reporter, cherry pick, set 2 (AID 743343); assay type: functional;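 further: transfected cells were stimulated with diluted bursicon conditioned medium after compound addition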
[8] = inhibitors of SNCA 5'UTR-driven translation, confirmation, luminescence, H4 neuroglioblastoma cells, dose confirmation (AID 2454); assay type: functional, cell-based;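 further: H4 neuroglioblastoma cells carrying an alpha-synuclein 5'UTR luciferase reporter; potency for inhibition of the luciferase signal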
cells = assay type: functional, cell-based
[9] = MC4R antagonists, dose response, counter-screen for LGR2 antagonist project, cell-based, plate reader, cherry pick (AID 743444); assay type: functional;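 further: transfected HEK 293 cells stimulated with alpha-MSH peptide; potency of inhibitors of the alpha-MSH evoked signal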
[10] = luciferase reporter signal reduction – luminescence, H4-C neuroglioblastoma cells, dose response (AID 2458); assay type: functional, cell-based;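 further: H4 neuroglioblastoma cells stably carrying a luciferase reporter gene fusion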
[11] = Luminescence Cell-Based Dose Response HTS to Identify Inhibitors of 5'UTR Stem-Loop Driven Prion Protein mRNA Translation in H4 Neuroglioblastoma Cells. [Related pubchem assays: 1827 (Project Summary), 1813 (Primary HTS)]; assay type: functional
[12] = A549 cell cytotoxicity, dose response, cytotoxicity control, plate reader, cherry-pick, antagonist series (AID 743412); assay type: functional, cell-based
[13] = HepG2 cell cytotoxicity, dose response, cytotoxicity control, plate reader, cherry-pick, antagonist series (AID 743416); assay type: functional, cell-based
[14] = inhibitors of SNCA 5'UTR-driven reporter translation, confirmation, H4 neuroglioma cells, luminescence (AID 1988); assay type: functional, cell-based
[15] = molecular target: T3, Heat shock factor protein 1 (Mus musculus, UniProt P38532); assay: inhibition of MG132-induced HSE-luciferase signal, confirmation, cell-based, NIH3T3, luminescence, dose retest (AID 2382); assay type: functional;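 further: NIH3T3 fibroblasts with HSF1-driven luciferase reporter stressed by proteasome inhibitor MG132; luminescence from HSF1-driven luciferase expression after 8 hours of MG132 stress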
T3 sequence (P38532 whole entry): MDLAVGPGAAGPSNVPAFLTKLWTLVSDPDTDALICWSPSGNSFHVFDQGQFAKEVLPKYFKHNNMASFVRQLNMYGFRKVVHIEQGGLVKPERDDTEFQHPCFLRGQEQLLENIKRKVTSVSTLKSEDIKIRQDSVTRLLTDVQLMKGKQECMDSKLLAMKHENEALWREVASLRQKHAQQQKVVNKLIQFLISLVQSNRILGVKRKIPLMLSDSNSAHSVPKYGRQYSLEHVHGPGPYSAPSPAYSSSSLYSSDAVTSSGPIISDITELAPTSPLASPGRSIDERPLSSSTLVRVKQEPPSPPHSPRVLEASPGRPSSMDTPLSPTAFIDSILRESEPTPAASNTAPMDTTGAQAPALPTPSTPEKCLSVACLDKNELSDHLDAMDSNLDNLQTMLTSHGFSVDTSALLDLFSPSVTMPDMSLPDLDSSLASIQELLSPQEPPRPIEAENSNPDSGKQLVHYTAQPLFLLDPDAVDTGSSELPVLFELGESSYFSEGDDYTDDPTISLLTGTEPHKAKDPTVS

[16] = molecular target: Photoreceptor-specific nuclear receptor (Homo sapiens, UniProt Q9Y5X4); assay type: functional, cell-based;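 further: CHO-S cells with Gal4-NCOR and VP16-NR2E3 two-hybrid luciferase reporter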
[17] = HEK293 cell cytotoxicity, dose response, cytotoxicity control, plate reader, cherry-picked samples (AID 743446); assay type: functional, cell-based
[18] = miR-122 activators in hepatoma reporter cells, dose response, cell-based, Huh7 psiCHECK-miR122, Renilla luciferase, cherry-picked (AID 651956); assay type: functional;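 further: huh7 hepatoma cells stably carrying a psiCHECK-2 miR-122 sensor plasmid; renilla luciferase signal reporting endogenous miR-122 activity after 48 h compound exposure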
[19] = lymphoblastoid cell cytotoxicity, dose response, cytotoxicity control, plate reader, dry powder, set 2 (AID 624367); assay type: functional
[20] = HEK293 cell viability, dose response, counter-screen for EBV LMP1 inhibitor project, dry powder, set 2 (AID 624374); assay type: functional

T2 sequence (Q38C91 whole entry): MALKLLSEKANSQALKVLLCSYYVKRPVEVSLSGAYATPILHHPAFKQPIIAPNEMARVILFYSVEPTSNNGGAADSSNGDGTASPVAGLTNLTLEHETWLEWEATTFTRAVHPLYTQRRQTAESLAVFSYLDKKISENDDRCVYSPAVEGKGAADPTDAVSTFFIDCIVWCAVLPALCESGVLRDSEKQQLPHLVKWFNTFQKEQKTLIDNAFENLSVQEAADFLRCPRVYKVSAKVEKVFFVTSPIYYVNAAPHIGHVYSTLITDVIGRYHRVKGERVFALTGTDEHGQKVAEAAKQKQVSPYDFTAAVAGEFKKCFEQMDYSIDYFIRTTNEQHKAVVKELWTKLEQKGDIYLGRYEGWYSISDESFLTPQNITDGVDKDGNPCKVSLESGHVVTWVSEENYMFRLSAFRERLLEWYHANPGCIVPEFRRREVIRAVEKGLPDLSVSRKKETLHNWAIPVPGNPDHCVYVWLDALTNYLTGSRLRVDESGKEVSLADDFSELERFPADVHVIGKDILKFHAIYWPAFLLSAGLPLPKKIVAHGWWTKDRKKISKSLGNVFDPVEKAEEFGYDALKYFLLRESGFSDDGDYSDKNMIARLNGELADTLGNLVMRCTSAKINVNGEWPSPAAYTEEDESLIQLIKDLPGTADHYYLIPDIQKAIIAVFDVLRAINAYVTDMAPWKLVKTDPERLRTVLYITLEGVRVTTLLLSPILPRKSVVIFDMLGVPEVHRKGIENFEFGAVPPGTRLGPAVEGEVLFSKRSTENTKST
Sequence of Photoreceptor-specific nuclear receptor (Q9Y5X4 whole entry, the tested form may be a part): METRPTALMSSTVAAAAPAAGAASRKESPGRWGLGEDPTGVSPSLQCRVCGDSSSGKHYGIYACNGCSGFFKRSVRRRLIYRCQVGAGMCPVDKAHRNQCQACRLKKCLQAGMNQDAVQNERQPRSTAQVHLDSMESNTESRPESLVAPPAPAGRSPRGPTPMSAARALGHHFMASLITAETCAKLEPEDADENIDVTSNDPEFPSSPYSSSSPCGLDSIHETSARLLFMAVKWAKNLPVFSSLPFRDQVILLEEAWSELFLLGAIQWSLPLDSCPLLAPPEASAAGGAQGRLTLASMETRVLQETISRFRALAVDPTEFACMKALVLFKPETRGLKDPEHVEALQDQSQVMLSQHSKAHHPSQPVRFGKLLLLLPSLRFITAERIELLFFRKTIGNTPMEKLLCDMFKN

With `CN1CCCC1CCNc1ccc2sc3ccccc3c(=O)c2c1` (stereo not drawn) the AC50 (A549) was 20.2 µM (active), the CC50 [1] was 11.5 µM (active) and the CC50 (Vero) was 21.1 µM (active). The AC50 [2] was 13.6 µM (active) and the AC50 [3] was 48.8 µM (active).
With `O=C(NCCCCc1ccccc1)Nc1cccc(F)c1` the IC50 [4] was 11.9 µM (inactive), the IC50 [5] was 15.5 µM (inactive) and the IC50 [6] was 83.3 µM (inactive).
For `Cc1cc(C(=O)Nc2ccc(Cl)cc2)c(C)n1-c1ccccc1`, the AC50 [7] was < 0.068 µM (active), the EC50 [8] was 0.149 µM (active) and the EC50 (cells) was 1.43 µM (active). For the same compound, the AC50 [9] was < 0.068 µM (active), the EC50 [10] was 0.409 µM (active) and the EC50 [11] was 8.36 µM (active). The AC50 [12] was > 52 µM (inactive), the AC50 [13] was > 52 µM (inactive) and the EC50 [14] was < 0.1 µM (active). The EC50 [15] was < 0.16 µM (active), the IC50 [16] was 0.017 µM (active) and the AC50 [17] was > 52 µM (inactive).
With `CC(C)(C)c1ccc(S(=O)(=O)NCCc2ccncc2)cc1` the AC50 [18] was 25 µM (active).
Work on `Cc1noc(C)c1S(=O)(=O)Nc1ccc2c(c1)C(=O)N([C@@H](C)CO)C[C@@H](C)[C@@H](CN(C)Cc1ccc(C(F)(F)F)cc1)OCCCC[C@H](C)O2` yielded an AbsAC35 [19] of 52.95 µM and an AbsAC35 [20] of 54.05 µM.
